ChEMBL document CHEMBL1141723, “Specific targeting of metzincin family members with small-molecule inhibitors: progress toward a multifarious challenge” (Bioorg Med Chem, 2008)
The source made the active and inactive calls. No cut-off for these calls is given here.

What was measured:
[1] = target: T1, Interstitial collagenase (Homo sapiens) (UniProt P03956); experiment: Inhibition of MMP1 at 100 uM
T1 sequence (whole entry): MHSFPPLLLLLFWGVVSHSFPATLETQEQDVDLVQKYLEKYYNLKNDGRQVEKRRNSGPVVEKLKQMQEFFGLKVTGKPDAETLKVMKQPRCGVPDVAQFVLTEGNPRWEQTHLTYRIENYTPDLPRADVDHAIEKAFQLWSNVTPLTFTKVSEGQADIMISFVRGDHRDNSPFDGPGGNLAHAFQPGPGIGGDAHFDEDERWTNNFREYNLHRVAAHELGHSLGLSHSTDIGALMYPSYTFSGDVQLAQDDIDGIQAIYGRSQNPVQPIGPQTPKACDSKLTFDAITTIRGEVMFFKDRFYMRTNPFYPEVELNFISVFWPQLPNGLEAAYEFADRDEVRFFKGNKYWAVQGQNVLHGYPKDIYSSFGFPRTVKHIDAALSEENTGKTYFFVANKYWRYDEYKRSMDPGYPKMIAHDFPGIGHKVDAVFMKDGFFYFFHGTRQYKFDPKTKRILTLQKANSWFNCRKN

[2] = target: T2, Matrix metalloproteinase-14 (Homo sapiens, UniProt P50281); experiment: Inhibition of MMP14 up to 100 uM
[3] = target: T3, Macrophage metalloelastase (Homo sapiens, UniProt P39900); experiment: Inhibition of MMP12 up to 100 uM
Target sequence in this assay (P39900 106-470 limits assumed): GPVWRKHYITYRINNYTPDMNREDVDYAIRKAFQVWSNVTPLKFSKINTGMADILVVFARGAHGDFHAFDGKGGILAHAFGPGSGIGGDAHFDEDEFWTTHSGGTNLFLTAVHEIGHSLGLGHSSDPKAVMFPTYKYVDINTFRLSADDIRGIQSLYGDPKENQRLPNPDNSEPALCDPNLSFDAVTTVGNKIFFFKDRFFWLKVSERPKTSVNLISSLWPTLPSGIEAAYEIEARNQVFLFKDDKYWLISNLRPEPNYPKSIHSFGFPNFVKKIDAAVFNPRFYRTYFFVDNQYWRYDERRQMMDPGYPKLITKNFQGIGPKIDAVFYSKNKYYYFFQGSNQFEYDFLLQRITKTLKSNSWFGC

[4] = target: T4, Neutrophil collagenase (Homo sapiens, UniProt P22894); experiment: Inhibition of MMP8 up to 100 uM
Target sequence in this assay (P22894 101-467 limits assumed): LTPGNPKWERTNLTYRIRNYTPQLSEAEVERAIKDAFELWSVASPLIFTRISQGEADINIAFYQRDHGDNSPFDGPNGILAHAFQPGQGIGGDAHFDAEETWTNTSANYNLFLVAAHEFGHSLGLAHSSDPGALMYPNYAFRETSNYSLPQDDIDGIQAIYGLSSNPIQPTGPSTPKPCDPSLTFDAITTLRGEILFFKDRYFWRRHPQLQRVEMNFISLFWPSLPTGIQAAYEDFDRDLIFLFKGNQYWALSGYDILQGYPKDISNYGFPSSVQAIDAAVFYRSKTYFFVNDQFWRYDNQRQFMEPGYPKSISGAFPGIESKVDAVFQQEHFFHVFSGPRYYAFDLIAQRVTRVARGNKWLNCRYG

[5] = target: T5, 72 kDa type IV collagenase (Homo sapiens, UniProt P08253); experiment: Inhibition of MMP2 up to 100 uM
Target sequence in this assay (P08253 110-660 limits assumed): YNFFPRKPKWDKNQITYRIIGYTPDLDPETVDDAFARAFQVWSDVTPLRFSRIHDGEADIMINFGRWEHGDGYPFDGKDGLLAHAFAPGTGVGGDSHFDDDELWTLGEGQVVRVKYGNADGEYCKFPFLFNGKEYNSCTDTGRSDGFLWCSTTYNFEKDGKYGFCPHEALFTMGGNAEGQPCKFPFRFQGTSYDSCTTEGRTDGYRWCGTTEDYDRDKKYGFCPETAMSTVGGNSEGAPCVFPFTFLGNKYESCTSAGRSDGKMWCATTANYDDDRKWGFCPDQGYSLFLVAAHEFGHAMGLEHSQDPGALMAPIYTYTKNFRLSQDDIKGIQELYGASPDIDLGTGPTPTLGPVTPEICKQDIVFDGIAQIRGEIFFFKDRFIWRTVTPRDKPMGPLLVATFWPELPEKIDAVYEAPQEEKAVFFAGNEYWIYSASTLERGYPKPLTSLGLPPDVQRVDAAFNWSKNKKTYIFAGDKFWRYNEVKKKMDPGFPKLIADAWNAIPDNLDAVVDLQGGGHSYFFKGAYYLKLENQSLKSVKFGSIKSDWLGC

[6] = target: T6, Matrix metalloproteinase-17 (Homo sapiens) (UniProt Q9ULZ9); experiment: Inhibition of MMP17 up to 100 uM
T6 sequence (whole entry): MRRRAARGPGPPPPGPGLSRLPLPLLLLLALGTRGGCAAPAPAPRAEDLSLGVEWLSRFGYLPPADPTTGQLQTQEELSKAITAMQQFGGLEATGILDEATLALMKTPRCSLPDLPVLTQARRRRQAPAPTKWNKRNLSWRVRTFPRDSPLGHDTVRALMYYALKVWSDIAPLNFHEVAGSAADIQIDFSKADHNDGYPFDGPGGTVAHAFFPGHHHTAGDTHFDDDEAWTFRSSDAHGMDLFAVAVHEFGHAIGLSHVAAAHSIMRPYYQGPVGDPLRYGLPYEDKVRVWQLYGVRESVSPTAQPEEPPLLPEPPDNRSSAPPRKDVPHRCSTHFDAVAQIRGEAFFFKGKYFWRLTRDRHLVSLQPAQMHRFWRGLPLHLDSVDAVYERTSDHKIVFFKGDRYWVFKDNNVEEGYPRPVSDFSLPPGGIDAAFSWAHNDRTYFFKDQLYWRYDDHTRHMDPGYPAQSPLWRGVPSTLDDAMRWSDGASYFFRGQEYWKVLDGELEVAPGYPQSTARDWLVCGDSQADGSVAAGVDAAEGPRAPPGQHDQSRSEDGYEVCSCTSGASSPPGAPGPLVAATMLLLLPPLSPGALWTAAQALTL

[7] = target: T7, Matrilysin (Homo sapiens) (UniProt P09237); experiment: Inhibition of MMP7 up to 100 uM
T7 sequence (whole entry): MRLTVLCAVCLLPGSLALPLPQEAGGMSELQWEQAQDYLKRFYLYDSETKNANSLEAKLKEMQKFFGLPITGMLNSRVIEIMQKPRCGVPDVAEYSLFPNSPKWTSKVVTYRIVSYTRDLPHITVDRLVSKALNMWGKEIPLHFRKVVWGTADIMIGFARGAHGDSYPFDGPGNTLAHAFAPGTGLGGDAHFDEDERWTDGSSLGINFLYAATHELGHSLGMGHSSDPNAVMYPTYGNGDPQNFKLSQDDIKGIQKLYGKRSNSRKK

[8] = target: T8, Matrix metalloproteinase-9 (Homo sapiens, UniProt P14780); experiment: Inhibition of MMP9 up to 100 uM
[9] = target: T9, Stromelysin-1 (Homo sapiens, UniProt P08254); experiment: Inhibition of MMP3 up to 100 uM
[10] = target: T2, Matrix metalloproteinase-14; experiment: Inhibition of MMP14
[11] = target: T4, Neutrophil collagenase; experiment: Inhibition of MMP8
Target sequence in this assay (P22894 whole entry): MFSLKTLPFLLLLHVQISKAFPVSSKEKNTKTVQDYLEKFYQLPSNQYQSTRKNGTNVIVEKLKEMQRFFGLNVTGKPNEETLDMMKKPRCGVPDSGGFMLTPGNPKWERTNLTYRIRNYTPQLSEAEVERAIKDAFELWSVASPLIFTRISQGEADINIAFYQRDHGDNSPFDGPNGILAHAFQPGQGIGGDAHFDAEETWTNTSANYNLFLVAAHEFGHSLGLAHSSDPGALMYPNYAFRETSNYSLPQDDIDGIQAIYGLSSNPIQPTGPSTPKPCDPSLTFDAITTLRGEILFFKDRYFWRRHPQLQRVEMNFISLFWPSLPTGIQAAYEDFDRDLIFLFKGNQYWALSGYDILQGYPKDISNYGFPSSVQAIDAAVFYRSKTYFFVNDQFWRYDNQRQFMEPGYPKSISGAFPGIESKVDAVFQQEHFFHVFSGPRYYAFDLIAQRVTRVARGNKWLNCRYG

[12] = target: T10, Matrilysin (Homo sapiens, UniProt P09237)
T10 sequence (P09237 whole entry): T7 sequence (whole entry)

[13] = target: Disintegrin and metalloproteinase domain-containing protein 17 (Homo sapiens, UniProt P78536); experiment: Inhibition of TACE
[14] = target: T8, Matrix metalloproteinase-9; experiment: Inhibition of MMP9
[15] = target: Collagenase 3 (Homo sapiens, UniProt P45452); experiment: Inhibition of MMP13
[16] = target: T11, Disintegrin and metalloproteinase domain-containing protein 10 (Homo sapiens, UniProt O14672); experiment: Inhibition of ADAM10
T11 sequence (O14672 whole entry): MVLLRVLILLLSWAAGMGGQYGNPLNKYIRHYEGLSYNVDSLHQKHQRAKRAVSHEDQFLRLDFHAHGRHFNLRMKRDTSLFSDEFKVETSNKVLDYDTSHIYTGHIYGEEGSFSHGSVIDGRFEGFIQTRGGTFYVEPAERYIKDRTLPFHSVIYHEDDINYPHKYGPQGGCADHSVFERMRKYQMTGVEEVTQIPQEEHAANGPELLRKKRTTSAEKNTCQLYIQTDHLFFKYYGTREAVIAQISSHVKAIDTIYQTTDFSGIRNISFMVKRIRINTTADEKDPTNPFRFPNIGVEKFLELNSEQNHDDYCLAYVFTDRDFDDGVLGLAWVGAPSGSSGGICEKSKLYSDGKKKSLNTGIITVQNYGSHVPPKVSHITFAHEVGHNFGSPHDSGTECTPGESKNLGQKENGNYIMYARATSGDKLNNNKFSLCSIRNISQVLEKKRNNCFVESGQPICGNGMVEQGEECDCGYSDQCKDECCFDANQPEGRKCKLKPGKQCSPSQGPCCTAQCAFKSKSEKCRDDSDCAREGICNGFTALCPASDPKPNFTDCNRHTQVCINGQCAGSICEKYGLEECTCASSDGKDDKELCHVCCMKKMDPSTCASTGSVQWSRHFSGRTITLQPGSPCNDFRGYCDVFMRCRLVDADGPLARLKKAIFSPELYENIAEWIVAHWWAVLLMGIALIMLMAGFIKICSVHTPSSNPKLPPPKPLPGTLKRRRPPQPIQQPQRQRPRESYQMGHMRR

[17] = target: T12, Interstitial collagenase (Homo sapiens, UniProt P03956)
T12 sequence (P03956 whole entry): T1 sequence (whole entry)

[18] = target: T5, 72 kDa type IV collagenase
Target sequence in this assay (P08253 whole entry): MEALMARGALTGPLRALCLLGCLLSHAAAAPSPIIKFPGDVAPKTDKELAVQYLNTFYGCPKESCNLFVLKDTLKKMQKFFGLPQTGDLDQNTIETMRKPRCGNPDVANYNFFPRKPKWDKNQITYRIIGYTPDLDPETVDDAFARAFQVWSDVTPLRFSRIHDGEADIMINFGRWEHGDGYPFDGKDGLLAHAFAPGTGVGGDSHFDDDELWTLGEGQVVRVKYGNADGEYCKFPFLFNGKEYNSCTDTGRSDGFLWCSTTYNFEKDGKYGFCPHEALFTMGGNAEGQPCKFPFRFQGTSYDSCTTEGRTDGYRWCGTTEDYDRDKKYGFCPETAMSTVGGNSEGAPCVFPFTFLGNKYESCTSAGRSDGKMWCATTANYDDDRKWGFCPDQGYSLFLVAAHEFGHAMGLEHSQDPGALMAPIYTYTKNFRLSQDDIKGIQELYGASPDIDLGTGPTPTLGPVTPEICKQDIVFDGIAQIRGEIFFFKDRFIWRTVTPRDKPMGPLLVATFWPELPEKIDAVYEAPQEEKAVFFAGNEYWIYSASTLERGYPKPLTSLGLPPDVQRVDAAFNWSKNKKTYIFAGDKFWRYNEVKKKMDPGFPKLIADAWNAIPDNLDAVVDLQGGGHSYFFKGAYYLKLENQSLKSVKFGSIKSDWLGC

[19] = target: Stromelysin-3 (Homo sapiens, UniProt P24347); experiment: Inhibition of MMP11
[20] = Inhibition of aggrecanase at 1 uM
[21] = target: T3, Macrophage metalloelastase; experiment: Inhibition of MMP12
Target sequence in this assay (P39900 whole entry): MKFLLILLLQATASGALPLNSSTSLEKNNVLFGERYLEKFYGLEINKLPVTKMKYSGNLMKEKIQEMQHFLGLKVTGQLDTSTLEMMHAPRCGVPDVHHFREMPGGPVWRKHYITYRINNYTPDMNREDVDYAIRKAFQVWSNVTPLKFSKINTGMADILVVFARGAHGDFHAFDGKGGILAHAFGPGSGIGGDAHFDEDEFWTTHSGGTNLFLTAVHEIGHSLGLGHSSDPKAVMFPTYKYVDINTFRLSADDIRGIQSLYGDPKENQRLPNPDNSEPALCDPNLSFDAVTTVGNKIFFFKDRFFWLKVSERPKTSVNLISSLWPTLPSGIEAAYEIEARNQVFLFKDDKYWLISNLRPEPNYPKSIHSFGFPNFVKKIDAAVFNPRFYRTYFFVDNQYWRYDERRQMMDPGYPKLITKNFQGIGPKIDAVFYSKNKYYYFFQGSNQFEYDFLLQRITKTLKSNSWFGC

[22] = target: T9, Stromelysin-1
Target sequence in this assay (P08254 whole entry): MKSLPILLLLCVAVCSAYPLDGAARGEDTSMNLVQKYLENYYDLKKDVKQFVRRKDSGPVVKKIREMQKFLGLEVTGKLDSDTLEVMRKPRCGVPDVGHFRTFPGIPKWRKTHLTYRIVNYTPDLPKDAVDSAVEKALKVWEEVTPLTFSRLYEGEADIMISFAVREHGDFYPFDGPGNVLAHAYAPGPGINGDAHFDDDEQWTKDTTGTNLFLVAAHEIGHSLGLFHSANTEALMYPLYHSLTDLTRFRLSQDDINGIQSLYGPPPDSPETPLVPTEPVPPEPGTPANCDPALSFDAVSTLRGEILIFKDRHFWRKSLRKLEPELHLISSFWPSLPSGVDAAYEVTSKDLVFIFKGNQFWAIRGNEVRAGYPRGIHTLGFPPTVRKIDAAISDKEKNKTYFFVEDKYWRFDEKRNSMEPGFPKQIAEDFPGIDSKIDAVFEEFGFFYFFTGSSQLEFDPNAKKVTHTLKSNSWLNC

[23] = target: Disintegrin and metalloproteinase domain-containing protein 17 (Sus scrofa, UniProt O77636); experiment: Inhibition of pig TACE

T8 sequence (P14780 whole entry): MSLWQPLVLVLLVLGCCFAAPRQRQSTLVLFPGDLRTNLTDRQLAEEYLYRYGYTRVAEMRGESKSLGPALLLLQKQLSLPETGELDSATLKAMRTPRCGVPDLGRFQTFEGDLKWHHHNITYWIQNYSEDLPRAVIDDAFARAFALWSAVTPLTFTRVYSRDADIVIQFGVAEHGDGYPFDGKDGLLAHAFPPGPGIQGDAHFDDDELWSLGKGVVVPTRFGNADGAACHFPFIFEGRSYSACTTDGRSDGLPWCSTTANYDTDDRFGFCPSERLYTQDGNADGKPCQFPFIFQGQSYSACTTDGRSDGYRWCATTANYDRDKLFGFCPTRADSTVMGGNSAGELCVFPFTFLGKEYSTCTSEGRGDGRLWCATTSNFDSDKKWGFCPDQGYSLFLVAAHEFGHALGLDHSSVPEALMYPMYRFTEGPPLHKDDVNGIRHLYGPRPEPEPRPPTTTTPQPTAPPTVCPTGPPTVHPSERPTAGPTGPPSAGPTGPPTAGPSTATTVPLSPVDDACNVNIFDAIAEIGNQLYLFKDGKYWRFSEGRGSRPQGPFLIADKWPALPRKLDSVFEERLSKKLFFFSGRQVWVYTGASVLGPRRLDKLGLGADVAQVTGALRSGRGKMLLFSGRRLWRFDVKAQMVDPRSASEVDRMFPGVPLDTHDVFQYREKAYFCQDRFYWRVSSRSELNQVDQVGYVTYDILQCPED
Chain of Disintegrin and metalloproteinase domain-containing protein 17 (Homo sapiens, UniProt P78536) (P78536 whole entry, the tested form may be a part): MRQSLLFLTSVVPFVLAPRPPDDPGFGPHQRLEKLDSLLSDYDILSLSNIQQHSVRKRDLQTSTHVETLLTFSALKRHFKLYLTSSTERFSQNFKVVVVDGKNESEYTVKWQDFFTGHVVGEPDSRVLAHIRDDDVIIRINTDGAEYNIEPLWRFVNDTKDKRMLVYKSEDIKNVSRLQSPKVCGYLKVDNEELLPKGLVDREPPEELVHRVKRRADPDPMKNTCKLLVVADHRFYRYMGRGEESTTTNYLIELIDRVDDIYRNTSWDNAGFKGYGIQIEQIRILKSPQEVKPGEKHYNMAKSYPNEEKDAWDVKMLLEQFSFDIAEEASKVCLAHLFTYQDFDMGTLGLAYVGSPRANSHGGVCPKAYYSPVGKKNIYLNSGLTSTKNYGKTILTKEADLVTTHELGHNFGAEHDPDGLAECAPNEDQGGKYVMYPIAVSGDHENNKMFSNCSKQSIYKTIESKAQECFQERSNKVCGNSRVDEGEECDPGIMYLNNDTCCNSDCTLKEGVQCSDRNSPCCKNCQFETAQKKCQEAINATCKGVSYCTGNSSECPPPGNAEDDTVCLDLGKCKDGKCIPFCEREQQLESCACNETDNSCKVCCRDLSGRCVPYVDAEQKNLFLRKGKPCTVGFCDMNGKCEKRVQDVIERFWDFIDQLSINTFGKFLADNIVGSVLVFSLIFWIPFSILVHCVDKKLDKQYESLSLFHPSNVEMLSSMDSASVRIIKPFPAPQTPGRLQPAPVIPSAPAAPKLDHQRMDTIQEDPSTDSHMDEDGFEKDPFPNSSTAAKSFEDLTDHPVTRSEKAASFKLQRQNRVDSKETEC

Cn1c(=O)n(Cc2ccc(C(=O)O)cc2)c(=O)c2cc(C#CCc3ccccc3)ccc21
Activity [1]: inactive | Activity [2]: inactive | Activity [3]: inactive | Activity [4]: inactive | Activity [5]: inactive | Activity [6]: inactive | Activity [7]: inactive | Activity [8]: inactive | Activity [9]: inactive

CC#CCOc1ccc(S(=O)(=O)N[C@@H](C(=O)NO)[C@H](C)O)cc1
IC50 [10]: 582 nM | IC50 [11]: 35 nM | IC50 [12]: 961 nM | IC50 [13]: 2 nM | IC50 [14]: 777 nM | IC50 [15]: 96 nM | IC50 [16]: 1090 nM | IC50 [17]: 2470 nM

O=S(=O)(CC1CS1)c1ccc(Oc2ccccc2)cc1 (stereo not given)
Ki [13]: 3700 nM

COc1ccccc1SC[C@H](CP(=O)(O)[C@H](Cc1ccccc1)NC(=O)OCc1ccccc1)C(=O)N[C@@H](Cc1c[nH]c2ccccc12)C(N)=O
Ki [10]: 160 nM | Ki [11]: 38.9 nM | Ki [18]: 30 nM | Ki [19]: 0.23 nM | Ki [14]: 35.6 nM | Ki [15]: 15.7 nM

Cc1cc(=O)c(O)c(C(=O)NCc2ccc(-c3ccc(-c4ccccc4)cc3)cc2)o1
IC50 [18]: > 50000 nM | IC50 [17]: > 50000 nM

Cc1cc(COc2ccc(C(=O)NCC3(N4CCN(S(C)(=O)=O)CC4)C(=O)NC(=O)NC3=O)cc2)c2ccccc2n1
inhibition [20]: 11%

CN1CC2(CC2)C[C@H](C(=O)NO)[C@H]1C(=O)N1CCN(c2ccc(C(F)(F)F)cn2)CC1
IC50 [13]: 2040 nM | IC50 [21]: 564 nM | IC50 [16]: 97 nM

O=C(O)C[C@@H](NC(=O)c1cc(-c2ccc(-c3ccncc3)cc2)cs1)c1ccccc1
IC50 [11]: 1700 nM | IC50 [18]: > 100000 nM | IC50 [22]: 390 nM | IC50 [14]: 980 nM

CC#CCOc1ccc(S(=O)(=O)CC2(C(=O)NO)CCN(c3c(C)noc3C)CC2)cc1
IC50 [10]: 24000 nM | IC50 [18]: 664 nM | IC50 [13]: 2.2 nM | IC50 [14]: 5500 nM | IC50 [15]: 2280 nM | IC50 [17]: 37300 nM

COC[C@@H](NC(=O)[C@@H](NC(=O)[C@H](CCCc1ccc(-c2ccccc2)c(C)c1)CC(=O)NO)C(C)(C)C)c1ccccc1
IC50 [10]: 930 nM | IC50 [18]: 750 nM | IC50 [22]: 2.1 nM | IC50 [14]: 560 nM | IC50 [17]: 5900 nM

Cc1cc(COc2ccc(NC(=O)[C@H]3[C@H](C(=O)NO)CCCN3C)cc2)c2ccccc2n1
Ki [18]: > 3330 nM | IC50 [23]: 6.2 nM | Ki [14]: > 2130 nM | Ki [17]: > 4950 nM

COc1ccc(C2=NNC3(S2)C(=O)N(Cc2ccccc2)c2ccc(C)cc23)cc1 (stereo not given)
IC50 [15]: > 100000 nM | IC50 [21]: > 22000 nM

COc1c(Br)ccc2oc(COc3ccc(-c4ccc(S(=O)(=O)N[C@@H](C(=O)O)C(C)C)cc4)cc3)c(C)c12
IC50 [11]: 42 nM | IC50 [22]: 81 nM | IC50 [13]: > 25000 nM | IC50 [17]: > 400000 nM
